The results in this text go back to patent US10676468B2, “N-(3-heteroarylaryl)-4-arylarylcarboxamides and analogs as hedgehog pathway inhibitors and use thereof” (IMPACT Therapeutics, Inc., priority 2012, dated 2020).

Usually IC50 stands for the concentration at which inhibition is half-maximal.

Format in all cases: cell-based, mouse
Experiment [1] concerns Hedgehog Signaling Pathway. Briefly: SAG-induced differentiation of C3H10T1/2 cells into osteoblastic cells, intracellular alkaline phosphatase activity. To be noted: 1 μM SAG, 5 days, alkaline phosphatase activity (OD405), read-out: IC50 values of compounds that inhibit Hh pathway. A digest of the protocol:
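Mouse C3H10T1/2 cells were induced with SAG and exposed to compound (10 μM to 1 nM) for 5 days at 37 °C. Cells were lysed in 0.2% Triton, and alkaline phosphatase activity was read as OD405 over 30 min at 37 °C in pH 9.8 substrate buffer. IC50 came from a non-linear fit of background-subtracted OD405 against log concentration.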

For experiment [2], the system named is Hedgehog Signaling Pathway. Briefly: SHH-induced differentiation of C3H10T1/2 cells into osteoblastic cells, intracellular alkaline phosphatase activity. To be noted: 10 nM SHH-N, 5 days, alkaline phosphatase activity (OD405), read-out: IC50 values of compounds that inhibit Hh pathway. A digest of the protocol:
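Mouse C3H10T1/2 cells were induced with 10 nM SHH-N alongside test compound (10 μM–10 nM) for 5 days at 37 °C. Cells were lysed in 0.2% Triton, and alkaline phosphatase activity was read at OD405 over 30 min at 37 °C with the background reading subtracted. IC50 came from a nonlinear fit against log concentration.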

Experiment [3] relates to Hedgehog Signaling Pathway. Put plainly: Gli-Luc reporter gene cell assay in C3H10T1/2/Gli-Luc cells stimulated with Shh. To be noted: 30 nM Shh, luciferase activity (RLU), read-out: IC50 values of compounds that inhibit Hh pathway. A digest of the protocol: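 C3H10T1/2 cells stably carrying Gli-responsive luciferase were seeded overnight, then treated 24 h at 37 °C with compound (7-point dilution series, DMSO control) plus Shh (30 nM in added medium). Lysate luciferase RLU fitted against log concentration to derive IC50.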

Where [4] appears, read: Mus musculus, C3H 10T1/2, 120 h.

For `C[C@@H]1CN(c2ccc(C(=O)Nc3ccc(Cl)c(-c4nc5cscc5[nH]4)c3)c(Cl)c2)C[C@H](C)N1C` [Example 199, N-(3-(1H-thieno[3,4-d]imidazol-2-yl)-4-chlorophenyl)-2-chloro-4-((3S,5R)-3,4,5-trimethylpiperazin-1-yl)benzamide], the IC50 in experiment [1] (setting [4]) was 11 nM; in experiment [2] (setting [4]), 0.19 nM; in experiment [3] (Mus musculus, C3H 10T1/2, 24 h), 0.27 nM.
Take `C[C@@H]1CN(c2ccc(C(=O)Nc3ccc(Cl)c(-c4cnc5ccccc5n4)c3)c(Cl)c2)C[C@H](C)N1C` [Example 204, N-(3-(quinoxalin-2-yl)-4-chlorophenyl)-2-chloro-4-((3S,5R)-3,4,5-trimethylpiperazin-1-yl)benzamide]: the IC50 in experiment [1] (setting [4]) came out at 201 nM; in experiment [2] (setting [4]), 49 nM; in experiment [3] (Mus musculus, C3H 10T1/2, 24 h) it was 9.6 nM.
On the same counts, the results for `C[C@@H]1CN(c2ccc(C(=O)Nc3ccc(Cl)c(-c4cn5ccsc5n4)c3)c(Cl)c2)C[C@H](C)N1C` [Example 205, N-(3-(imidazo[2,1-b]thiazol-6-yl)-4-chlorophenyl)-2-chloro-4-((3S,5R)-3,4,5-trimethylpiperazin-1-yl)benzamide] are 250 nM, 94 nM and 29 nM.
On the same counts, the results for `Cc1cc(N2C[C@@H](C)N(C)[C@@H](C)C2)ccc1C(=O)Nc1ccc(Cl)c(-c2nc3ccccc3o2)c1` [Example 206, N-(3-(benzo[d]oxazol-2-yl)-4-chlorophenyl)-2-methyl-4-((3S,5R)-3,4,5-trimethylpiperazin-1-yl)benzamide] are 244 nM, 46 nM and 27 nM.
Consider `C[C@@H]1CN(c2ccc(C(=O)Nc3ccc(Cl)c(-c4nc5ccccc5s4)c3)c(Cl)c2)C[C@H](C)N1C` [Example 207, N-(3-(benzo[d]thiazol-2-yl)-4-chlorophenyl)-2-chloro-4-((3S,5R)-3,4,5-trimethylpiperazin-1-yl)benzamide], for which the concentration for half-maximal inhibition (IC50) was 158 nM in experiment [1] (setting [4]); 31 nM in experiment [2] (setting [4]); 8.5 nM in experiment [3] (Mus musculus, C3H 10T1/2, 24 h).
In the same order, the values of `C[C@@H]1CN(c2ccc(C(=O)Nc3ccc(Cl)c(-c4ccccn4)c3)c(Cl)c2)C[C@H](C)N1C` [Example 208, N-(3-(pyridin-2-yl)-4-chlorophenyl)-2-chloro-4-((3S,5R)-3,4,5-trimethylpiperazin-1-yl)benzamide] are 52 nM, 1.3 nM and 3.7 nM.
For the compound `C[C@@H]1CN(c2ccc(C(=O)Nc3ccc(Cl)c(-c4ncccn4)c3)c(Cl)c2)C[C@H](C)N1C` [Example 209, N-(3-(pyrimidin-2-yl)-4-chlorophenyl)-2-chloro-4-((3S,5R)-3,4,5-trimethylpiperazin-1-yl)benzamide], the half-inhibitory concentration (IC50) is 1800 nM in experiment [1] (setting [4]); more than 10000 nM in experiment [2] (setting [4]); more than 10000 nM in experiment [3] (Mus musculus, C3H 10T1/2, 24 h).
In the case of `CS(=O)(=O)c1ccc(C(=O)Nc2ccc(Cl)c(-c3ccccn3)c2)c(Cl)c1` [GDC-0449, reference compound], the IC50 turned out to be 108 nM in experiment [1] (setting [4]); 38 nM in experiment [2] (setting [4]); 43 nM in experiment [3] (Mus musculus, C3H 10T1/2, 24 h).
With “N-(3-(1H-benzo[d]imidazol-2-yl)-4-chlorophenyl)-2-cyano-4-((3S,5R)-3,4,5-trimethylpiperazin-1-yl)benzamide Dihydrochloride [Example 134]”, the IC50 in experiment [1], in experiment [2] and in experiment [3] (24 hours) was more than 10000 nM in each case.
On to “N-(3-(5-(furan-2-yl)-1H-imidazol-2-yl)-4-chlorophenyl)-2-cyano-4-((3S,5R)-3,4,5-trimethylpiperazin-1-yl)benzamide [Example 147]”, for which the concentration for half-maximal inhibition (IC50) in experiment [1], in experiment [2] and in experiment [3] (24 hours) was more than 10000 nM in each case.
